Source: PMC3664642, “A Peptide against Soluble Guanylyl Cyclase α1: A New Approach to Treating Prostate Cancer” (PLoS ONE, 2013)
Where no end group is shown, it is not given here.

Experiments:
[1] = molecular target: T1, sGCα1 (Homo sapiens, UniProt Q02108); test: Biotin pulldown and competition from LNCaP extract; format: binding; conditions: competition, 150 µg unlabeled peptide vs 5 µg Peptide A-8R-Biotin; Fig. 2B
T1 sequence (Q02108 1-690): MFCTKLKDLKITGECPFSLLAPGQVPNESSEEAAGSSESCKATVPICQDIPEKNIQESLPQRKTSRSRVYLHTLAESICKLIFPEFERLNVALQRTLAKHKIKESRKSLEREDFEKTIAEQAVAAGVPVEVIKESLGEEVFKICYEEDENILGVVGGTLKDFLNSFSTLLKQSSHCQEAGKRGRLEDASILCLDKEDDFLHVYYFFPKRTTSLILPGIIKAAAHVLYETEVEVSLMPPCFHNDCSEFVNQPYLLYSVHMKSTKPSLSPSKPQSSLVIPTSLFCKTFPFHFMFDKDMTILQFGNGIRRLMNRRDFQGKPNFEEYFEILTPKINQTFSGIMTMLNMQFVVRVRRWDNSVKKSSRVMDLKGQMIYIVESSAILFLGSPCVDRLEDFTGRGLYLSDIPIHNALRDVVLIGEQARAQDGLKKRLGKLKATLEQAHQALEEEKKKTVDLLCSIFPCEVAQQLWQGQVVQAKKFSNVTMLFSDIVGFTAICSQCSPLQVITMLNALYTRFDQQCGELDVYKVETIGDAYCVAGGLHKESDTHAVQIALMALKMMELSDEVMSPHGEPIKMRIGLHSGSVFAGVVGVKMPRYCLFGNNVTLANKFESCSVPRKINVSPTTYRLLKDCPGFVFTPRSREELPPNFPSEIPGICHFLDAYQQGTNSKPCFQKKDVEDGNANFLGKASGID
Description: Immunoprecipitation (IP) in LNCaP cells was performed as described previously. Whole-cell extracts from LNCaP cells were subjected to IP using Protein A/G plus Agarose (Santa Cruz). IP antibodies were against sGCα1 (Cayman Chemical), sGCβ1 (Cayman Chemical), or rabbit IgG (Santa Cruz) as control. For Biotin pulldown, 5 µg Biotin-labeled Peptide A was incubated with NeutrAvidin Agarose Resin (Thermo Scientific) for 3 hours at 4°C, after which whole-cell extract from LNCaP cells was added and incubated overnight at 4°C. Resin was washed and eluted with SDS Sample buffer, followed by SDS-PAGE gel electrophoresis.
Figure 2 Peptide A-8R interacts with sGCα1 in prostate cancer cells. (A) LNCaP cells were treated with 25 µM Biotin-labeled Peptide A-8R for 2 hrs and subjected to immunocytochemistry using anti-sGCα1 or anti-Biotin antibody to measure subcellular co-localization of endogenous sGCα1 and Peptide A-8R. DAPI was used to stain nuclei. (B) LNCaP cytosolic extracts were incubated with Peptide A-8R-Biotin and subjected to purification using streptavidin-agarose. This pull-down experiment was repeated with competing excess amount of unlabeled Peptide C-8R or Peptide A-8R. In both cases Western blotting was used to measure the co-purification of sGCα1. […] Co-purified Peptide A-8R-FITC was quantified by measuring fluorescence signal emission. […] Cell number was measured after 0–48 hrs of incubation. […]

[2] = system: Caspase 3/7 activity in LNCaP cells; test: Caspase 3/7 assay, LNCaP cells; format: cell-based; conditions: Fig. 5A; for increase in Caspase 3/7 activity: 10 µM, averages of three independent experiments, relative to first condition
Description: For proliferation, cells were grown in medium containing 2% FBS extracted with dextran-coated charcoal (DCC). 48 hours later, ethanol or 1 nM R1881 was added to the cells followed by peptide treatment. The MTT assay (Sigma) was used as before to determine cell number. For apoptosis, 5000 cells were seeded in 96-well plates and treated with Vehicle (DMSO), Peptide A-8R (25 µM), Etoposide (50 µM) (Sigma) at different time points. The Caspase (3/7) activity was measured using Apo-ONE Homogeneous Caspase-3/7 assay kit (Promega). PARP cleavage was also used to measure apoptosis, and is described below.
Figure 5 Peptide A-8R induces apoptosis of prostate cancer cells. (A) LNCaP, (B) PC-3, or (C) Cos cells were treated with Vehicle, Peptide A-8R (10 µM), or Etoposide (20 µM) for 0–24 hrs and subjected to a Caspase assay to measure apoptosis. Bar graphs represent averages of three independent experiments plus standard deviations. All activities are relative to the first condition, and this activity was set to 1. Asterisks indicate statistical significance (P<0.005). (D) LNCaP cells were treated with Vehicle, Peptide C-8R, Peptide A-8R, or Etoposide (each drug at 50 µM) for 8 hrs and monitored for apoptosis by measuring PARP cleavage using Western blotting. Note that β-actin was used to control for protein loading.
Supplementary file pone.0064189.s005.tif: Figure S5 ROS generation is not induced by Peptide A-8R in PC-3 cells and Peptide C-8R in LNCaP cells. (A) PC-3 cells were treated with Vehicle or different concentrations of Peptide A-8R or Peptide C-8R, as shown, or (B) LNCaP cells were treated with Vehicle or different concentrations of Peptide A-8R or Peptide C-8R, or H2O2 and monitored for ROS generation after 0–30 (A) or 30 (B) min. (C) LNCaP cells were treated with Vehicle, Peptide C-8R (10 µM), Peptide A-8R (10 µM), or Etoposide (100 µM) for 0–8 hrs and subjected to a Caspase assay to measure apoptosis. Bar graphs represent averages of three independent experiments plus standard deviations. (C) All activities are relative to the first condition, and this activity was set to either 1. Asterisks indicate statistical significance (P<0.006) of all values compared to Vehicle (B) or to 0 hour (C). (TIF) Click here for additional data file.

Ac-TFCKAFPFHIIRRRRRRRR [Peptide A-8R]
inhibition of Peptide A-8R-Biotin interaction with sGCα1 [1]: significantly inhibited Peptide A-8R-Biotin interaction with sGCα1 | increase in Caspase 3/7 activity ([2]; 1 hour): 2 fold | increase in Caspase 3/7 activity ([2]; 8 hrs): ~4 fold | speed of Caspase 3/7 induction relative to Etoposide [2]: much faster than the well-studied apoptosis-inducing drug Etoposide | Caspase 3/7 activity ([2]; Peptide 10 µM, Etoposide 20 µM, 24 hrs): diminished to Vehicle levels
